Measurements published in patent publication US20060135587A1, “Method and compounds for promoting healing and reducing inflammation” (priority 2002, published 2006).

How the values were obtained:
[1] = test system: gastric and duodenal ulcer; test: Clinical trial in gastric and duodenal ulcer; format: in vivo, human; conditions: three 0.2 g tablets per day orally for three weeks
Protocol: A clinical trial of the effect of Compound 2 on gastric and duodenal ulcer was carried out in several gastroenterological clinics in Russia. A total of 167 patients, 30 to 75 years old, was studied; of these 93 had duodenal ulcers and 74 had gastric ulcers. The results were monitored by gastroscopy at weekly intervals. Each patient continued to receive the treatment which s/he had been given prior to commencement of the trial. Compound 2 was administered in addition to the previous treatment. Compound 2 was given orally as three 0.2 g tablets per day over a period of three weeks, ie a total dose of […] for the treatment course, Compound 2 healed 80% of all the duodenal ulcers treated, and 54% of all the gastric ulcers treated. […] The effect of Compound 2 was compared with those of a placebo, or cimetidine. Even better results were obtained when Compound 2 was administered together with conventional therapy. […] Following termination of treatment with Compound 2 no ulceration was observed, ie there was no sign of the abstinence syndrome which is typically seen with H2-blockers and hormones. Compound 2 was an effective therapeutic agent with a pronounced reparative effect on erosive and ulcerating injuries of the gastroduodenal area.

[2] = test system: lesions of the gastric mucosa; test: Gastric lesions induced by immobilization and hypothermia; format: in vivo, rats; set-up: % reduction of degree of ulceration / % reduction of ulcerated area: concentration or dose not given beside the values; conditions: Protective effect, 30 minutes before the test
Protocol: The models used gastric ulcers induced by
b) Immobilization and hypothermia (induced by water cooling);
The compounds were administered intraperitoneally at a dose of 20 mg/kg; in the cryogenic ulcer model compound 2 was administered either intraperitoneally (10 mg/kg) or orally (20 mg/kg twice daily, ie. a total of 40 mg/kg/day) and was compared to orally-administered gastrocepin (1 mg/kg twice daily, ie. a total of 2 mg/kg/day).

[3] = test system: chronic active viral hepatitis; test: Clinical study in chronic active viral hepatitis; format: in vivo, human; conditions: 600 mg a day orally
Protocol: 45 patients aged between 18 and 32 years old with chronic active viral hepatitis were divided into 4 groups and kept under observation. All patients had received conventional therapy, usually potassium orotate, riboxin and interferon prior to commencement of the trial.
The first group (10 patients) received conventional therapy for 20 days. Assessment of clinical and biochemical indicators and serology data was carried out repeatedly for 20 days after the beginning of treatment.
The second group (10 patients) received both conventional treatment and prednisolone at a dose of […] for 20 days. In this group the clinical-biochemical and serological analysis took place before the treatment, and 10 days and 20 days after the beginning of treatment.
The third group (10 patients) received both conventional treatment and Compound 2 administered orally at a dose of 600 mg a day for 20 days. The control clinical-biochemical and serological analysis was carried out 20 days after the beginning of treatment.
The fourth group (15 patients) received prednisolone either orally or intravenously at a dose of 15 mg a day for 10 days; then prednisolone was stopped and replaced by Compound 2 at a dose of 600 mg a day for 10 days. […]

rats = test: Acute toxicity (LD50) in rats; format: in vivo
Description: It is contemplated that in clinical use, treatment using oral tablets will take two to three weeks, with each patient receiving three tablets containing 0.6 g active compound per day.

myocardial infarction = test: Clinical trial in subacute myocardial infarction and cardiac insufficiency (Example 23); format: in vivo, human
Protocol: A clinical trial of Compound 2 was carried out on 100 patients aged from 25 to 75 years during the subacute period of myocardial infarction. Each patient continued to receive the treatment which s/he had been given prior to commencement of the trial. Compound 2 was administered in addition to the previous treatment. A control group received conventional treatment, ie. nitrate, anticoagulants and/or hypotensive agents as appropriate. The results of treatment of these two groups were compared with groups of patients receiving riboxine and placebo. Compound 2 was administered over a period of three weeks from the 7th to 28th days following infarction, and was administered orally at a dose of three 0.2 g tablets per day.
The effects of treatment were monitored by 12-lead electrocardiography, using the QRS Scoring System. Haemodynamic parameters and the contractile function of the myocardium were monitored using a Toshiba ultrasound camera model SSH-60A, using conventional methods.
The effect of Compound 2 was also studied in 25 patients aged 43 to 66 years suffering from cardiac insufficiency, in comparison with riboxine or a placebo.

mice, rats, dogs = test: Chronic toxicity studies over six months; format: in vivo; conditions: mice and rats 40 mg/kg per day subcutaneously, dogs 10 or 40 mg/kg per day orally
Protocol: No effect on body weight, weight of internal organs, structure or function of internal organs or blood indicators was observed. These studies were performed in mice (40 mg/kg per day, given subcutaneously), in rats (40 mg/kg per day, given subcutaneously) and in dogs (10 mg/kg or 40 mg/kg per day, given orally).

[4] = test system: carrageenin-induced inflammation; test: Carrageenin-induced inflammation in intact and adrenalectomized rats; format: in vivo
Protocol: An acute inflammatory oedema was induced in intact and adrenalectomized male rats weighing 180-200 g by sub-plantar injection of 0.1 ml of 1% carrageenin solution into the left paw (Winter et al., 1962). The same volume of saline solution was injected into the contralateral paw. […] There were 10 rats in each group.
The degree of carrageenin-induced inflammation of the ankle joints was assessed at 3 hours after the induction of the inflammation, on the basis of the change in weight of the experimental and control paws (reaction index).

[5] = Adrenalectomized animals, 50 mg/kg 4 days + carrageenin
[6] = Adrenalectomized animals, 100 mg/kg 4 days + carrageenin
[7] = Intact animals, 100 mg/kg 4 days + carrageenin

CC[n+]1cn(C)c(C(=O)NC)c1C(=O)NC.O=S(=O)([O-])c1ccccc1 [Compound 2, 1-methyl-3-ethyl-4,5-bis(N-methylcarbamoyl)-imidazolium benzenesulfonate]
side effects [1]: No side effects were observed | duodenal ulcers healed ([1]; added to previous treatment): 80% | gastric ulcers healed ([1]; added to previous treatment): 54% | % reduction of degree of ulceration [2]: 64% | % reduction of ulcerated area [2]: 62% | Area of lesion [2]: 4.1 ± 0.8 | Average number of lesions per animal ([2]; 20 mg/kg intraperitoneally): 4.1 ± 0.9 | clinical picture and biochemical indicators [3]: improves the clinical picture and normalizes biochemical indicators | LD50 (rats; given intraperitoneally): 1210 mg/kg | LD50 (rats; oral administration): more than 20000 mg/kg | side effects (myocardial infarction; both patient groups): No side effects were observed in either group | recovery of the contractile function of the myocardium versus placebo or riboxine (myocardial infarction; myocardial infarction patients, three 0.2 g tablets per day orally, 7th to 28th day): recovery of the contractile function of the myocardium was more rapid | progression of cardiac insufficiency (myocardial infarction; patients suffering from cardiac insufficiency): prevented the progression of the condition | chronic toxicity findings (mice, rats, dogs): had no irritating or allergic action, does not act on the central nervous system, and has no teratogenic, mutagenic or carcinogenic immunosuppressive activity | Inhibition of oedema(%) [4, 5]: 27.88% | Reaction index (%) [4, 5]: 31.04 ± 2.49 % | Inhibition of oedema(%) [4, 6]: 44.43% | Reaction index (%) [4, 6]: 25.63 ± 2.86 % | Inhibition of oedema(%) ([4]; Intact animals, 50 mg/kg orally 4 days + carrageenin): 30.41% | Reaction index (%) ([4]; Intact animals, 50 mg/kg orally 4 days + carrageenin, 3 hours): 29.96 ± 2.30 % | Inhibition of oedema(%) [4, 7]: 47.43% | Reaction index (%) [4, 7]: 22.63 ± 2.86 %
